Each block holds one compound with its values, some of them ahead of it.
What was measured:
HSA = conditions: literature reference value; cited from earlier work
[1] = molecular target: T1, human serum albumin (HSA) (Homo sapiens, UniProt P02768); experiment: in vitro
Method: Solutions were allowed to incubate at room temperature for 30 minutes and 200 μl samples were loaded onto the DCC cartridge. Elution was initiated and samples collected under vacuum at 5, 10 and 60 seconds.
(§1) Ultrafiltration Experiments. […] Samples (0.5 ml) were centrifuged (1500×g; 3 minutes) at 25° C.
0.1 μCi/ml) in isotonic PBS and dilutions of a 40 mg/ml HSA solution were prepared. Solutions were allowed to incubate at room temperature for 30 minutes and 200 μl samples were loaded onto the DCC cartridge. Elution was initiated and samples were collected under vacuum at 1 second and at 60 seconds. Adsorption of each ligand also was evaluated after 2 hours of DCC exposure.
as §1
Evaluation of Alternative HSA Site I-Specific Ligands.
The relationship between the extent of adsorption and the unbound fraction for each ligand can be described by Equation 1. y=yo+a(1−e^−bx) Equation 1

[2] = molecular target: T1, human serum albumin (HSA); experiment: Time course of ligand adsorption in packed-bed DCC cartridge in the presence of HSA; conditions: HSA 40 mg/ml, at termination of experiment (5 minutes)
[3] = 1 minute DCC exposure, mean ± SE

T1 sequence (P02768 25-609): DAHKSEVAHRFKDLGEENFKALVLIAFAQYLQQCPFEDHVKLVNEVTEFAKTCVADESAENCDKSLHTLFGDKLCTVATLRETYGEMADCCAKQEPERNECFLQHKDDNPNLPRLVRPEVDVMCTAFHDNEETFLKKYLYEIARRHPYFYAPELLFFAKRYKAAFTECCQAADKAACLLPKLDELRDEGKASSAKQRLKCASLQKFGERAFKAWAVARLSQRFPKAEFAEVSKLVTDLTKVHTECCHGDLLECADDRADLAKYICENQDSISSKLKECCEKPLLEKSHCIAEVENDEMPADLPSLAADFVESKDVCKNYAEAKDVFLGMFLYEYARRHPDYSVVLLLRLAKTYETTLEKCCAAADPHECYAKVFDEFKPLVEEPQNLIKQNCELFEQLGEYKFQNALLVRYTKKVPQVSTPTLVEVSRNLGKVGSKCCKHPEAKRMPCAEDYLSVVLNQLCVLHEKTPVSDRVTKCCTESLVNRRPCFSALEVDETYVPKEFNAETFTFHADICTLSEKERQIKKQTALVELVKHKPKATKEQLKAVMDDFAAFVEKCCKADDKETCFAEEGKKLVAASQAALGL

Structure (SMILES): N[C@@H](Cc1c[nH]c2ccccc12)C(=O)O [[^3H]-TRP, L-tryptophan]
UNBOUND FRACTION (HSA): 0.5

adsorption after 1 minute of exposure to DCC, restricted or not [1]: not restricted
Structure (SMILES): O=C1NC(=O)C(c2ccccc2)(c2ccccc2)N1 [[^3H]-DPH, diphenylhydantion]
UNBOUND FRACTION (HSA): 0.12

a (empirical parameter of Equation 1) [1]: 82.9 ± 8.6
b (empirical parameter of Equation 1) [1]: 1.5 ± 0.4
Yo (intercept of Equation 1, extent of adsorption at unbound fraction 0) ([1]; human): 27.0 ± 4.1
fraction unbound at 10 mg/ml ([1]; human): ~0.8
Structure (SMILES): CCCC(CCC)C(=O)O [[^3H]-VPA, valproic acid, valproate]
UNBOUND FRACTION (HSA): 0.1

Structure (SMILES): CC(C)NCC(O)COc1cccc2ccccc12 (stereo not drawn) [[^3H]-PRO, propanonol]
UNBOUND FRACTION (HSA): 0.13

Structure (SMILES): C[C@H]1O[C@@H](O[C@H]2[C@@H](O)C[C@H](O[C@H]3[C@@H](O)C[C@H](O[C@H]4CC[C@@]5(C)[C@H](CC[C@@H]6[C@@H]5CC[C@]5(C)[C@@H](C7=CC(=O)OC7)CC[C@]65O)C4)O[C@@H]3C)O[C@@H]2C)C[C@H](O)[C@@H]1O [[^3H]-DIGT, digitoxin]
Yo (intercept of Equation 1, extent of adsorption at unbound fraction 0) [1, 3]: 0
a (empirical parameter of Equation 1) [1, 3]: 95.6 ± 0.3
b (empirical parameter of Equation 1) [1, 3]: 29.5 ± 0.7
DCC adsorption as unbound fraction approached 0.2 ([1]; 1 minute of charcoal exposure): nearly complete
adsorption to DCC in the presence of HSA [2]: ~100%
UNBOUND FRACTION (HSA): 0.05

— patent US20050032243A1, “Method and apparatus for rapid determination of ligand-protein binding using charcoal adsorption” (priority 2001, published 2005)
